The source of these data is patent publication US9073895B2 (Boehringer Ingelheim International GmbH, priority 2010, dated 2015).

pIC50: −log10 of the molar value.

Experiment [1] concerns the target T1, recombinant human FLAP protein (Homo sapiens, UniProt P20292).
T1 construct: made in house; host or cells: Sf9 insect cells (membrane fraction, 100,000 x g pellet)
T1 sequence (P20292 1-161): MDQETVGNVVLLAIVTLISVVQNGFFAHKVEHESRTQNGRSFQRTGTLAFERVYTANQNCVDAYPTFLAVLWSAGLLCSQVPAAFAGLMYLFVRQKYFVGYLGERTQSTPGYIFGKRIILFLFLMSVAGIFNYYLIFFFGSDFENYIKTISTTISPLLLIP
The experiment is described as follows: FLAP binding assay (SPA, displacement of [125I]L-691,831). The settings on record: membranes of sf9 cells expressing human FLAP, [125I]L-691,831 probe; read-out: hFLAP binding IC50. A digest of the protocol: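 Membranes from sf9 cells expressing human FLAP (5 μg/well) were bound to WGA SPA beads (200 μg/well). Nonspecific binding was defined with 10 μM unlabelled L-691,831.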
(Loss of bound radioactivity is the signal in a displacement assay; it reports binding, not function.)

The subject of experiment [2] is synthesis of LTB4 in human whole blood. Briefly: Human whole blood LTB4 production inhibition assay. Type of experiment: cell-based. The conditions noted are these: heparinized human whole blood, calcimycin 20 μM, plasma LTB4; read-out: HuWB IC50. The gist of the method: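 Whole-blood cellular format, heparinized human donors: 15 min compound pretreatment, then 30 min calcimycin stimulation (20 μM final), both at 37° C. Low-speed centrifugation yields plasma, in which LTB4 is read by homogeneous time-resolved fluorescence immunoassay.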

As a reminder, the pIC50 is the negative decadic logarithm of the IC50, by convention in mol/L.

For `CNc1ncc(-c2ccc(C3(C(=O)Nc4cccnc4)CCC3)cc2)cn1` [Example 192, 1-{4-[2-(methylamino)pyrimidin-5-yl]phenyl}-N-(pyridin-3-yl)cyclobutanecarboxamide], the figures for the pIC50 in experiment [1] and in experiment [2] were 7.49 and 6.06, respectively.
`Nc1ncc(-c2ccc(C3(C(=O)Nc4ccc(Oc5ccccc5)cn4)CCC3)cc2)cn1` [Example 194, 1-[4-(2-aminopyrimidin-5-yl)phenyl]-N-(5-phenoxypyridin-2-yl)cyclobutanecarboxamide]: the figures for the pIC50 in experiment [1] and in experiment [2] were 7.72 and 6.24, respectively.
`Cn1cc(-c2ccc(NC(=O)C3(c4ccc(-c5cnc(N)nc5)cc4)CCC3)nc2)cn1` [Example 255, 1-[4-(2-aminopyrimidin-5-yl)phenyl]-N-[5-(1-methyl-1H-pyrazol-4-yl)pyridin-2-yl]cyclobutanecarboxamide]: the pIC50 is 8.60 in experiment [1] and 6.84 in experiment [2].
For `COc1cncc(-c2ccc(C(C)(C(=O)Nc3ccc(-c4csc(C)n4)cc3)C(C)C)cc2)c1` (stereo not shown) [Example 112, 2-[4-(5-methoxypyridin-3-yl)phenyl]-2,3-dimethyl-N-[4-(2-methyl-1,3-thiazol-4-yl)phenyl]butanamide], in that order: 6.64 and 5.69.
With `Nc1ncc(-c2ccc(C3(C(=O)Nc4ccc(-c5cnco5)cc4)CCOCC3)cc2)cn1` [Example 27, 4-[4-(2-aminopyrimidin-5-yl)phenyl]-N-[4-(1,3-oxazol-5-yl)phenyl]tetrahydro-2H-pyran-4-carboxamide], the pIC50 in experiment [1] was 8.26; in experiment [2], 6.68.
Take `Cc1nc(-c2ccc(NC(=O)C3(c4ccc(-c5cnc(N)nc5)cc4)CCC3)nc2)cs1` [Example 131, 1-[4-(2-aminopyrimidin-5-yl)phenyl]-N-[5-(2-methyl-1,3-thiazol-4-yl)pyridin-2-yl]cyclobutanecarboxamide]: the results for the pIC50 in experiment [1] and in experiment [2] were 8.66 and 6.38, respectively.
The corresponding values for `Cc1nc(-c2ccc(NC(=O)C(C)(C)c3ccc(-c4cnc(N)nc4)cc3)nc2)cs1` [Example 235, 2-[4-(2-aminopyrimidin-5-yl)phenyl]-2-methyl-N-[5-(2-methyl-1,3-thiazol-4-yl)pyridin-2-yl]propanamide] are 8.27 and 6.20.
As to `CCC(C)(C(=O)Nc1ccncc1)c1ccc(-c2cnc(N)nc2)cc1` (stereo not shown) [Example 231, 2-[4-(2-aminopyrimidin-5-yl)phenyl]-2-methyl-N-(pyridin-4-yl)butanamide], the figures for the pIC50 in experiment [1] and in experiment [2] were 7.08 and 5.92, respectively.
Take `Nc1ncc(-c2ccc(C3(C(=O)Nc4ccnnc4)CCC3)cc2)cn1` [Example 215, 1-[4-(2-aminopyrimidin-5-yl)phenyl]-N-(pyridazin-4-yl)cyclobutanecarboxamide]: the pIC50 is 7.75 in experiment [1] and 6.15 in experiment [2].
As to `Cn1nccc1-c1ccc(NC(=O)C2(c3ccc(-c4cnc(N)nc4)cc3)CCC2)nc1` [Example 106, 1-[4-(2-aminopyrimidin-5-yl)phenyl]-N-[5-(1-methyl-1H-pyrazol-5-yl)pyridin-2-yl]cyclobutanecarboxamide], the values for the pIC50 in experiment [1] and in experiment [2] were 8.52 and 6.71, respectively.
The corresponding values for `Nc1ncc(-c2ccc(C3(C(=O)Nc4cnc(-c5ccccc5)nc4)CCOCC3)cc2)cn1` [Example 65, 4-[4-(2-aminopyrimidin-5-yl)phenyl]-N-(2-phenylpyrimidin-5-yl)tetrahydro-2H-pyran-4-carboxamide] are 7.85 and 6.04.
Consider `N#Cc1cc(NC(=O)C2(c3ccc(-c4cnc(N)nc4)cc3)CCC2)ccn1` [Example 236, 1-[4-(2-aminopyrimidin-5-yl)phenyl]-N-(2-cyanopyridin-4-yl)cyclobutanecarboxamide], for which the pIC50 in experiment [1] is 8.46; in experiment [2], 6.54.
In the case of `COc1cncc(-c2ccc(NC(=O)C3(c4ccc(-c5cnc6c(c5)CCN6)cc4)CCOCC3)nc2)c1` [Example 175, 4-[4-(2,3-dihydro-1H-pyrolo[2,3-b]pyridin-5-yl)phenyl]-N-(5'-methoy-3,3'-bipyridin-6-yl)tetrahydro-2H-pyran-4-carboxamide], the pIC50 in experiment [1] was 7.66; in experiment [2] it was 5.89.
The corresponding values for `CC(C)(C)c1cc(NC(=O)C2(c3ccc(-c4cnc(N)nc4)cc3)CCOCC2)ccn1` [Example 47, 4-[4-(2-aminopyrimidin-5-yl)phenyl]-N-(2-tert-butylpyridin-4-yl)tetrahydro-2H-pyran-4-carboxamide] are 7.19 and 5.49.
As for `Nc1ncc(-c2ccc(C3(C(=O)Nc4cccc(OC(F)(F)F)c4)CCOCC3)cc2)cn1` [Example 21], the pIC50 in experiment [1] is 7.92; in experiment [2], less than 5.52.
The corresponding values for `Nc1ncc(-c2ccc(C3(C(=O)Nc4ccc5c(c4)C(=O)OC5)CCOCC3)cc2)cn1` [Example 71, 4-[4-(2-aminopyrimidin-5-yl)phenyl]-N-(3-oxo-1,3-dihydro-2-benzofuran-5-yl)tetrahydro-2H-pyran-4-carboxamide] are 6.72 and less than 5.52.
As for `Cc1cc(C)c2ccc(NC(=O)C3(c4ccc(-c5cnc(N)nc5)cc4)CCOCC3)nc2n1` [Example 38, 4-[4-(2-aminopyrimidin-5-yl)phenyl]-N-(5,7-dimethyl-1,8-naphthyridin-2-yl)tetrahydro-2H-pyran-4-carboxamide], the negative logarithm of the IC50 (pIC50) in experiment [1] was 7.23; in experiment [2], less than 5.52.
As for `Nc1ncc(-c2ccc(C3(C(=O)Nc4ccc(O)nc4)CCC3)cc2)cn1` [Example 221, 1-[4-(2-aminopyrimidin-5-yl)phenyl]-N-(6-hydroxypyridin-3-yl)cyclobutanecarboxamide], the pIC50 is 6.54 in experiment [1] and less than 5.52 in experiment [2].
Consider `Cn1cnc(-c2ccc(NC(=O)C3(c4ccc(-c5cnc(N)nc5)cc4)CCOCC3)nc2)c1` [Example 144, 4-[4-(2-aminopyrimidin-5-yl)phenyl]-N-[5-(1-methyl-1H-imidazol-4-yl)pyridin-2-yl]tetrahydro-2H-pyran-4-carboxamide], for which the results for the pIC50 in experiment [1] and in experiment [2] were 7.18 and 5.80, respectively.
Turning to `COC(=O)c1cc(NC(=O)C2(c3ccc(-c4cnc(N)nc4)cc3)CCC2)ccc1O` [Example 97, methyl 5-[({1-[4-(2-aminopyrimidin-5-yl)phenyl]cyclobutyl}carbonyl)amino]-2-hydroxybenzoate], the negative-log IC50 (pIC50) was 8.31 in experiment [1] and 5.39 in experiment [2].
In the case of `N#Cc1ccc(NC(=O)C2(c3ccc(-c4cnc(N)nc4)cc3)CCC2)cn1` [Example 241, 1-[4-(2-aminopyrimidin-5-yl)phenyl]-N-(6-cyanopyridin-3-yl)cyclobutanecarboxamide], the pIC50 is 8.25 in experiment [1] and 6.39 in experiment [2].
`Nc1ncc(-c2ccc(C3(C(=O)Nc4cc(-c5ccccc5)no4)CCOCC3)cc2)cn1` [Example 37, 4-[4-(2-aminopyrimidin-5-yl)phenyl]-N-(3-phenyl-1,2-oxazol-5-yl)tetrahydro-2H-pyran-4-carboxamide]: the pIC50 in experiment [1] was 7.46; in experiment [2], less than 5.52.
For `Cc1cc(NC(=O)C2(c3ccc(-c4cnc5[nH]ccc5c4)cc3)CCC2)ccn1` [Example 189, N-(2-methylpyridin-4-yl)-1-[4-(1H-pyrrolo[2,3-b]pyridin-5-yl)phenyl]cyclobutanecarboxamide], in that order: 8.84 and 6.72.
The corresponding values for `COc1ccc(NC(=O)C2(c3ccc(-c4cnc(N)nc4)cc3)CCOCC2)cc1Cl` [Example 14, 4-[4-(2-aminopyrimidin-5-yl)phenyl]-N-(3-chloro-4-methoxyphenyl)tetrahydro-2H-pyran-4-carboxamide] are 8.05 and 5.65.
In the case of `Cc1nccn1-c1ccc(NC(=O)C2(c3ccc(-c4cnc(N)nc4)cc3)CCC2)cc1` [Example 229, 1-[4-(2-aminopyrimidin-5-yl)phenyl]-N-[4-(2-methyl-1H-imidazol-1-yl)phenyl]cyclobutanecarboxamide], the pIC50 in experiment [1] was 8.18; in experiment [2] it was 6.82.
For the compound `Cc1nc(NC(=O)C2(c3ccc(-c4cnc(N)nc4)cc3)CCOCC2)ccc1C#N` [Example 52, 4-[4-(2-aminopyrimidin-5-yl)phenyl]-N-(5-cyano-6-methylpyridin-2-yl)tetrahydro-2H-pyran-4-carboxamide], the pIC50 in experiment [1] is 7.20; in experiment [2] it was 5.74.
For `CCCCc1ccc2cc(NC(=O)C(C)(c3ccc(-c4cncc(OC)c4)cc3)C(C)C)ccc2n1` (stereo not shown) [Example 115, N-(2-butylquinolin-6-yl)-2-[4-(5-methoxypyridin-3-yl)phenyl]-2,3-dimethylbutanamide], in that order: 6.72 and 4.77.
As to `COC(=O)c1ccc(NC(=O)C2(c3ccc(-c4cnc(N)nc4)cc3)CCOCC2)nc1` [Example 146, methyl 6-[({4-[4-(2-aminopyrimidin-5-yl)phenyl]tetrahydro-2H-pyran-4-yl}carbonyl)amino]pyridine-3-carboxylate], the pIC50 in experiment [1] is 7.95; in experiment [2], 6.12.
Regarding `Cc1nc(-c2ccc(NC(=O)C3(c4ccc(-c5cnc(N)c(CO)c5)cc4)CCOCC3)nc2)cs1` [Example 176, 4-{4-[6-amino-5-(hydroxymethyl)pyridin-3-yl]phenyl}-N-[5-(2-methyl-1,3-thiazol-4-yl)pyridin-2-yl]tetrahydro-2H-pyran-4-carboxamide], the pIC50 in experiment [1] is 8.18; in experiment [2] it was 6.15.
